According to patent publication US20130065914A1, “HALOGEN OR CYANO SUBSTITUTED THIENO [2,3-D]PYRIMIDINES HAVING MNK1/MNK2 INHIBITING ACTIVITY FOR PHARMACEUTICAL COMPOSITIONS” (BOEHRINGER INGELHEIM INTERNATIONAL GMBH, priority 2010, published 2013):
Where a name gives a salt, the structure may show the parent alone.

Columns and labels:
[1] = tested on: Mnk2 (Mnk2a or Mnk2b) or Mnk1; conditions: cell culture cells transfected with Mnk2 (Mnk2a or Mnk2b) or Mnk1; cited from earlier work
[2] = target: T1, human Mnk2a (Homo sapiens, UniProt Q9HBH9); assay: Mnk2a in vitro kinase assay (indirect fluorescence polarization); format: biochemical; conditions: assay of example 2a; 20 μM ATP, 2.5 nM pre-activated Mnk2a; read-out: MNK2 Inhibition (IC50)
T1 construct: the open reading frames of human Mnk1 and Mnk2a were amplified from cDNA; made in house; host or cells: E. coli BL21
T1 sequence (Q9HBH9 whole entry): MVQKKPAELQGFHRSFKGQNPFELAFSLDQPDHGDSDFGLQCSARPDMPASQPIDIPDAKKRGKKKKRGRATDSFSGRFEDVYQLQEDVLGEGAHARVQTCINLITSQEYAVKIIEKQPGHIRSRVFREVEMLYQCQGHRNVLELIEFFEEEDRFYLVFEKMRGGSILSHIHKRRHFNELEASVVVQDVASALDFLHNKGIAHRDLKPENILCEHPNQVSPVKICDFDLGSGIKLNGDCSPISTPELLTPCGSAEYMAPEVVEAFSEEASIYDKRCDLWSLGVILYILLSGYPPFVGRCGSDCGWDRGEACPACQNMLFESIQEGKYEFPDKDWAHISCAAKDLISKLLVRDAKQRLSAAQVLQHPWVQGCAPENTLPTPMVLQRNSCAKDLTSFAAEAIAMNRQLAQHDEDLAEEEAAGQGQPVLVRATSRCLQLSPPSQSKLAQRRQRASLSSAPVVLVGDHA
Procedure: Assay principle: Inhibitory potency of compounds against Mnk1, Mnk2a and other kinases was assessed with assays based on a format known to those skilled in the art as the indirect (competitive) fluorescence polarization. The assay detection system comprises a small fluorophore-labeled phospho-peptide (termed ligand) bound to a phospho-specific antibody. The product generated by the kinase reaction competes with the ligand for antibody binding. Based on the larger molecular volume of the bound ligand, which results in a lower rotation rate in solution, its emitted light has a higher degree of polarization than the one from the free ligand.
As a source of enzyme, human Mnk1 and human Mnk2a were expressed as GST fusion proteins in E. coli, purified to >80% homogeneity by glutathione affinity chromatography and activated in vitro with pre-activated ERK2. In brief, the open reading frames of human Mnk1 and Mnk2a were amplified from cDNA using the forward/reverse primer pairs
(utilized restriction sites underlined), respectively, and cloned into the BamHI and SalI sites of the vector pGEX-4T1 (Amersham, Sweden, cat. no. 27-4580-01). These constructs allow prokaryotic expression of Mnk1 or Mnk2a as fusion protein with a N-terminal glutathione S-transferase (GST) tag, referred to as GST-Mnk1 or GST-Mnk2a. The following expression and purification procedure was identical for GST-Mnk1 and GST-Mnk2a, referring in general to GST-Mnk, when not distinguishing between the two isoforms. Expression of GST-Mnk was in E. coli BL21 (Merck Biosciences, Germany, cat. no. 69449). Cells were grown in LB-Bouillon (Merck, Germany, cat. no. 1.10285) supplemented with 100 μg/ml ampicillin (Sigma, Germany, cat. no. A9518) at 37° C. When the culture had reached a density corresponding to an A600 of 0.8, an equal volume of ice cold LB/ampicillin was added, the culture transferred to 25° C. and induced for 4 h with 1 mM isopropyl thiogalactoside (IPTG, Roth, Germany, cat. no. 2316.4). Cells harvested by centrifugation were resuspended in 10 ml lysis buffer (50 mM tris(hydroxymethyl)aminomethane hydrochloride (Tris/HCl, Sigma, Germany, cat. no. T5941) pH 7.5, 300 mM sodium chloride (NaCl, Sigma, Germany, cat. no. S7653), 5% (w/v) glycerol (Sigma, Germany, cat. no. G5516), 3 mM DTT dithiotreitol (DTT, Sigma, Germany, cat. no. D9779)) per gram wet weight cell pellet. Lysates were prepared by disruption of cells with a sonifier and subsequent clearing by centrifugation at 38000 g for 45 min at 4° C.
The lysate was applied to a GSTPrep FF 16/10 column (Amersham, Sweden, cat. no. 17-5234-01) equilibrated with lysis buffer. Removal of unbound material was with 3 column volumes (CV) lysis buffer. Elution was with 2 CV of elution buffer (50 mM Tris/HCl pH 7.5, 300 mM NaCl, 5% (w/v) glycerol, 20 mM glutathione (Sigma, Germany, cat. no. G4251)). Peak fractions were pooled and the protein transferred into storage buffer (50 mM Tris/HCl pH 7.5, 200 mM NaCl, 0.1 mM ethylene glycol-bis(2-aminoethylether)-N,N,N′,N′-tetraacetic acid (EGTA, Aldrich, Germany, cat. no. 23, 453-2), 1 mM DTT, 10% (w/v) glycerol, 0.5 M sucrose (Sigma, Germany, cat. no. S0389) by gel filtration on a PD10 desalting column (Amersham, Sweden, cat. no. 17-0851-01). Aliquots were shock frozen in liquid nitrogen and stored at −80° C.
Activation of Mnk1 and Mnk2a was at a concentration of 2.5 μM of either purified GST-Mnk1 or GST-Mnk2a by incubation with 150 nM pre-activated NHis-ERK2 (see ERK2 assay for preparation) and 50 μM adenosine triphosphate (ATP, Sigma, cat. no. A2699) in a buffer comprising 20 mM N-(2-hydroxyethyl)piperazine-N′-(2-ethanesulfonic acid) (HEPES, Fluka, Germany, cat. no 54459)/potassium hydroxide (KOH, Roth, Germany, cat. no 6751.1) pH 7.4, 10 mM magnesium chloride (MgCl2, Sigma, Germany, cat. no. M2670), 0.25 mM DTT, 0.05% (w/v) polyoxyethylene 20 stearylether (Brij 78, Sigma, Germany, cat. no. P4019) (HMDB buffer) for 45 min at 30° C. […]

IC50 [2] | SMILES | reduction of phosphorylated eIF4E [1]
 | Nc1ncnc2n[nH]c(Nc3ccc(F)cc3)c12 [CGP57380] | strong reduction
11 nM | Cc1c(Br)sc2ncnc(Nc3ccc(F)cc3OC(C)CN)c12 (stereo not shown) [Example 8, [2-(2-Amino-1-methyl-ethoxy)-4-fluoro-phenyl]-(6-bromo-5-methyl-thieno[2,3-d]pyrimidin-4-yl)-amine] | 
8 nM | Cc1c(Br)sc2ncnc(Nc3ccc(F)cc3OC(C)CNS(C)(=O)=O)c12 (stereo not shown) [Example 10, N-{2-[2-(6-Bromo-5-methyl-thieno[2,3-d]pyrimidin-4-ylamino)-5-fluoro-phenoxy]-propyl}-methanesulfonamide] | 
10 nM | Cc1c(Cl)sc2ncnc(Nc3ccc(F)cc3OC(C)CN)c12 (stereo not shown) [Example 13, [2-(2-Amino-1-methyl-ethoxy)-4-fluoro-phenyl]-(6-chloro-5-methyl-thieno[2,3-d]pyrimidin-4-yl)-amine trifluoroacetate] | 
9 nM | Cc1c(Cl)sc2ncnc(Nc3ccc(F)cc3OC(C)CNS(C)(=O)=O)c12 (stereo not shown) [Example 15, N-{2-[2-(6-Chloro-5-methyl-thieno[2,3-d]pyrimidin-4-ylamino)-5-fluoro-phenoxy]-propyl}-methanesulfonamide] | 
16 nM | CCOc1cc(C(N)=O)ccc1Nc1ncnc2sc(Cl)c(C)c12 [Example 16.2, 4-(6-Chloro-5-methyl-thieno[2,3-d]pyrimidin-4-ylamino)-3-ethoxy-benzamide] | 
58 nM | Cc1c(Br)sc2ncnc(Nc3ccc(F)cc3OC(C)C)c12 [Example 18, (6-Bromo-5-methyl-thieno[2,3-d]pyrimidin-4-yl)-(4-fluoro-2-isopropoxy-phenyl)-amine] | 
